Source: US20240279218A1 (Hoffmann-La Roche Inc., priority 2016, published 2024)
Read-outs that look alike come from different tables or passages of the source.

What was measured:
h-GABA-A α5β3γ2 [1] = target: T1, h-GABA-A α5β3γ2 (Homo sapiens (Human), UniProt P18507+P31644); experiment: Two-electrode voltage clamp electrophysiology in Xenopus oocytes expressing GABAA receptors, modulation of GABA EC20 current; assay type: cell-based
Summary of the method: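 Values are % modulation of an EC20 GABA response, derived point by point from the ratio of compound-exposed versus control current traces (extremum taken, 100×(fold−1)). Recordings used oocytes injected with human α5, β3, γ2 mRNA, clamped at −80 mV at room temperature, at least 3 oocytes each.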

h-GABA-A α5β3γ2 [2] = target: T1, h-GABA-A α5β3γ2; experiment: [3H]flumazenil competition binding assay, membranes of HEK293 cells expressing human GABAA receptors
Summary of the method: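 Displacement of [3H]flumazenil from membranes of HEK293 cells transiently expressing human α5β3γ2 receptors, in Krebs-tris buffer pH 7.5. Incubation to equilibrium, 1 h at 4° C., then filtration and scintillation counting. Ki is the mean of two determinations.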

[3] = % modulation of GABA EC20 = 100*(Fold increase−1), Xenopus oocytes
[4] = Xenopus oocytes, GABA EC20, test compound at approx. 30 fold its Ki
[5] = displacement of [3H]flumazenil 0.5 nM, HEK293 cells expressing human receptors, mean of two determinations, read-out: Ki h-GABA-A α5β3γ2

SMILES | Efficacy (GABA) % (h-GABA-A α5β3γ2 [1]; [3]) [%] | Fold increase h-GABA-A α5β3γ2 oocyte (h-GABA-A α5β3γ2 [1]; [4]) | Ki (h-GABA-A α5β3γ2 [2]; [5]) [nM] | Efficacy (GABA) % (h-GABA-A α5β3γ2 [1]; reference compounds, % modulation of GABA EC20) [%] | Fold increase h-GABA-A α5β3γ2 oocyte (h-GABA-A α5β3γ2 [1]; reference compounds, GABAA α5β3γ2 overexpressing oocytes, GABA EC20) | Ki (h-GABA-A α5β3γ2 [2]; reference compounds, GABAA receptor α5β3γ2, read-out: Ki α5-human) [nM]
Cc1ccc(-c2noc(C)c2COc2ccc(C(=O)N[C@@H]3CCCC[C@H]3O)cn2)cn1 [Example 132, N-((1R,2R)-2-hydroxycyclohexyl)-6-((5-methyl-3-(6-methylpyridin-3-yl)isoxazol-4-yl)methoxy)pyridine-3-carboxamide] | 64 | 1.64 | 37.7 | – | – | –
Cc1ccc(-c2noc(CF)c2COc2ccc(C(=O)NC3(C(F)(F)F)CC3)nn2)cn1 [Example 184, 6-((5-(fluoromethyl)-3-(6-methylpyridin-3-yl)isoxazol-4-yl)methoxy)-N-(1-(trifluoromethyl)cyclopropyl)pyridazine-3-carboxamide] | 96 | 1.96 | 51.2 | – | – | –
Cc1ccc(-c2noc(C)c2COc2ccc(C(=O)N3CCC(F)(F)C3)nn2)cn1 [Example 48, (3,3-difluoropyrrolidin-1-yl)(6-((5-methyl-3-(6-methylpyridin-3-yl)isoxazol-4-yl)methoxy)pyridazin-3-yl)methanone] | 74 | 1.74 | 31.6 | – | – | –
Cc1ccc(-c2noc(C)c2COc2ccc(C(=O)N[C@@H]3CCCC[C@H]3O)nn2)cn1 [Example 25, N-((1R,2R)-2-hydroxycyclohexyl)-6-((5-methyl-3-(6-methylpyridin-3-yl)isoxazol-4-yl)methoxy)pyridazine-3-carboxamide] | 59 | 1.59 | 9.4 | – | – | –
Cc1ccc(-c2noc(C)c2COc2ccc(C(=O)NC3CCOCC3)cn2)cc1 [RO-251, reference compound] | – | – | – | −18 | 0.82 | 1
Cc1ccc(-c2noc(C)c2COc2ccc(C(=O)N[C@H]3CC[C@H](O)CC3)nn2)cn1 [Example 153, trans-N-(4-hydroxycyclohexyl)-6-((5-methyl-3-(6-methylpyridin-3-yl)isoxazol-4-yl)methoxy)pyridazine-3-carboxamide] | 84 | 1.84 | 5.5 | – | – | –
Cc1ccc(-c2noc(C)c2COc2ccc(C(=O)N3CC(O)C3)nn2)cn1 [Example 66, (3-hydroxyazetidin-1-yl)(6-((5-methyl-3-(6-methylpyridin-3-yl)isoxazol-4-yl)methoxy)pyridazin-3-yl)methanone] | 69 | 1.69 | 5.8 | – | – | –
Cc1ccc(-c2noc(C)c2COc2cc3c(cn2)C(=O)N(C2CCS(=O)(=O)CC2)C3)cn1 [Example 91, 2-(1,1-dioxothian-4-yl)-6-((5-methyl-3-(6-methylpyridin-3-yl)-1,2-oxazol-4-yl)methoxy)-1H-pyrrolo[3,4-c]pyridin-3-one] | 140 | 2.4 | 5.5 | – | – | –
CCc1onc(-c2ccc(C)nc2)c1COc1ccc(C(=O)NC2CCOCC2)cn1 [Example 119, 6-((5-ethyl-3-(6-methylpyridin-3-yl)isoxazol-4-yl)methoxy)-N-tetrahydropyran-4-yl-pyridine-3-carboxamide] | 102 | 2.02 | 31 | – | – | –
Cc1ccc(-c2noc(C3CC3)c2COc2ccc(C(=O)NC3CC4(COC4)C3)nn2)cn1 [Example 181, 6-((5-cyclopropyl-3-(6-methylpyridin-3-yl)isoxazol-4-yl)methoxy)-N-(2-oxaspiro[3.3]heptan-6-yl)pyridazine-3-carboxamide] | 147 | 2.47 | 68 | – | – | –
Cc1ccc(-c2noc(C)c2COc2nnc(C(=O)NC3CCOCC3)cc2C)cn1 [Example 71] | 61 | 1.61 | 2.4 | – | – | –
CCc1onc(-c2ccc(C)nc2)c1COc1ccc(C(=O)NC2(C)COC2)nn1 [Example 122, 6-((5-ethyl-3-(6-methylpyridin-3-yl)isoxazol-4-yl)methoxy)-N-(3-methyloxetan-3-yl)pyridazine-3-carboxamide] | 126 | 2.26 | 26.4 | – | – | –
CCC[C@H](CO)NC(=O)c1ccc(OCc2c(-c3ccc(C)nc3)noc2C)nc1 [Example 124, (R)—N-(1-hydroxypentan-2-yl)-6-((5-methyl-3-(6-methylpyridin-3-yl)isoxazol-4-yl)methoxy)pyridine-3-carboxamide] | 47 | 1.47 | 36.6 | – | – | –
Cc1ccc(-c2noc(C)c2COc2ccc(C(=O)NCC(C)C)nn2)cn1 [Example 39, N-isobutyl-6-((5-methyl-3-(6-methylpyridin-3-yl)isoxazol-4-yl)methoxy)pyridazine-3-carboxamide] | 89 | 1.89 | 14.6 | – | – | –
Cc1ccc(-c2noc(C)c2COc2ccc(C(=O)NC3(C#N)CC3)nn2)cn1 [Example 69, N-(1-cyanocyclopropyl)-6-((5-methyl-3-(6-methylpyridin-3-yl)isoxazol-4-yl)methoxy)pyridazine-3-carboxamide] | 86 | 1.86 | 7.7 | – | – | –
CC[C@@H](CC#N)NC(=O)c1ccc(OCc2c(-c3ccc(C)nc3)noc2C)nn1 [Example 88, (S)—N-(1-cyanobutan-2-yl)-6-((5-methyl-3-(6-methylpyridin-3-yl)isoxazol-4-yl)methoxy)pyridazine-3-carboxamide] | 68 | 1.68 | 40.9 | – | – | –
Cc1ccc(-c2noc(C)c2COc2ccc(C(=O)NCCC#N)nn2)cn1 [Example 33, N-(2-cyanoethyl)-6-((5-methyl-3-(6-methylpyridin-3-yl)isoxazol-4-yl)methoxy)pyridazine-3-carboxamide] | 76 | 1.76 | 11.6 | – | – | –
Cc1ccc(-c2noc(C)c2COc2ccc(C(=O)NC3CCC(F)(F)CC3)nn2)cn1 [Example 43, N-(4,4-difluorocyclohexyl)-6-((5-methyl-3-(6-methylpyridin-3-yl)isoxazol-4-yl)methoxy)pyridazine-3-carboxamide] | 82 | 1.82 | 16.4 | – | – | –
Cc1ccc(-c2noc(C3CC3)c2COc2ccc(C(=O)NC3CCOCC3)nn2)nn1 [Example 165, 6-((5-cyclopropyl-3-(6-methylpyridazin-3-yl)isoxazol-4-yl)methoxy)-N-(tetrahydropyran-4-yl)pyridazine-3-carboxamide] | 174 | 2.74 | 2.6 | – | – | –
Cc1ccc(-c2noc(C)c2COc2cnc(C(=O)NC3CC4(COC4)C3)cn2)cn1 [Example 101, 5-((5-methyl-3-(6-methylpyridin-3-yl)isoxazol-4-yl)methoxy)-N-(2-oxaspiro[3.3]heptan-6-yl)pyrazine-2-carboxamide] | 82 | 1.82 | 50.6 | – | – | –
Cc1ccc(-c2noc(C)c2COc2ccc(C(=O)NC3(C)COC3)nn2)cn1 [Example 83, 6-((5-methyl-3-(6-methylpyridin-3-yl)isoxazol-4-yl)methoxy)-N-(3-methyloxetan-3-yl)pyridazine-3-carboxamide] | 96 | 1.96 | 5 | – | – | –
CCc1onc(-c2ccc(C)nc2)c1COc1ccc(C(=O)NC2CCOCC2)nn1 [Example 121, 6-((5-ethyl-3-(6-methylpyridin-3-yl)isoxazol-4-yl)methoxy)-N-(tetrahydropyran-4-yl)pyridazine-3-carboxamide] | 109 | 2.09 | 40.3 | – | – | –
Cc1ccc(-c2noc(C)c2COc2ccc(C(=O)NC(C)(CO)CO)nn2)cn1 [Example 147, N-(1,3-dihydroxy-2-methylpropan-2-yl)-6-((5-methyl-3-(6-methylpyridin-3-yl)isoxazol-4-yl)methoxy)pyridazine-3-carboxamide] | 48 | 1.48 | 9.6 | – | – | –
Cc1ccc(-c2noc(CF)c2COc2ccc(C(=O)NC3CCOCC3)nn2)nn1 [Example 192, 6-((5-(fluoromethyl)-3-(6-methylpyridazin-3-yl)isoxazol-4-yl)methoxy)-N-(tetrahydropyran-4-yl)pyridazine-3-carboxamide] | 56 | 1.56 | 3 | – | – | –
Cc1ccc(-c2noc(C)c2COc2cc3c(cn2)C(=O)N(C)C3)cn1 [Example 10, 2-methyl-6-((5-methyl-3-(6-methylpyridin-3-yl)isoxazol-4-yl)methoxy)-1H-pyrrolo[3,4-c]pyridin-3(2H)-one] | 80 | 1.8 | 18.9 | – | – | –
Cc1ccc(-c2noc(C)c2COc2ccc(C(=O)NCC3CC3)cn2)cn1 [Example 2, N-(cyclopropylmethyl)-6-((5-methyl-3-(6-methyl-3-pyridyl)isoxazol-4-yl)methoxy)pyridine-3-carboxamide] | 63 | 1.63 | 8.3 | – | – | –
